Experiments:
[1] = 100 kPa, Liquid, Frequency=0.01 MHz, Alternating current cell with electrodes
[2] = xn = mol fraction of the nth substance listed; details: 100 kPa, Liquid, Frequency=0.01 MHz, Alternating current cell with electrodes
[3] = mn = molality of the nth substance listed, in mol/kg; details: 100 kPa, Liquid, Frequency=0.01 MHz, Alternating current cell with electrodes

CCCO [propan-1-ol]
[1]
Details	electrical conductivity [S/m]
293.15 K	1.51e-06
298.15 K	1.8e-06
303.15 K	2.16e-06
308.15 K	2.38e-06

CCCO [propan-1-ol] + O
electrical conductivity [S/m], [2]
Details	x2 = 0	x2 = 0.1	x2 = 0.2	x2 = 0.3	x2 = 0.4	x2 = 0.5	x2 = 0.6	x2 = 0.7	x2 = 0.8
293.15 K	1.51e-06	3.98e-06	8.35e-06	1.38e-05	1.71e-05	2.01e-05	2.54e-05	2.84e-05	3.15e-05
298.15 K	1.8e-06	4.32e-06	8.31e-06	1.46e-05	1.86e-05	2.13e-05	2.55e-05	2.93e-05	3.36e-05
303.15 K	2.16e-06	4.68e-06	1.03e-05	1.58e-05	1.92e-05	2.27e-05	2.68e-05	3.06e-05	3.5e-05
308.15 K	2.38e-06	4.92e-06	8.6e-06	1.65e-05	2.01e-05	2.55e-05	2.96e-05	3.26e-05	3.75e-05

[I-].[Na+] [sodium iodide] + CCCO
[3]
Details	electrical conductivity [S/m]
293.15 K, m1 = 0.0007138	0.00107
298.15 K, m1 = 0.0009446	0.00154
303.15 K, m1 = 0.0007238	0.00135
308.15 K, m1 = 0.0006021	0.00126

Reference: the NIST ThermoML archive (doi:10.1016/j.jct.2017.07.003)
